Experimental data from patent publication US20250188092A1, “RIFAMYCIN ANALOGS” (THE REGENTS OF THE UNIVERSITY OF MICHIGAN, priority 2021, published 2025).
In brackets after ≈: the same amount, converted by molar mass.

Assays:
MTB H37Rv ATCC 27294 = assay: MIC, microplate Alamar Blue assay (MABA); assay type: cell-based, Mycobacterium tuberculosis; settings: for MIC90: Mycobacterium tuberculosis, MTB H37Rv ATCC 27294, microplate Alamar Blue assay, lowest concentration giving ≥90% reduction in fluorescence
DPX2 cells = settings: for DPX2 Viability @ 6.25 μM: 24 h; for DPX2 Viability @ 25 μM: human
VERO cells (ATCC CRL-81) = assay: Vero cell toxicity; assay type: cell-based; settings: Chlorocebus sabaeus, Vero; 72 hours exposure
Description: Cytotoxicity for a mammalian cell line was determined by exposing VERO cells (ATCC CRL-81) to serial dilutions of test compounds for 72 hours, followed by addition of resazurin and measurement of fluorescence after 4 hours incubation (Choules, et al., Antimnicrob. Agents Chemother. 2019, 63, e02204-02218).

Compound	MIC90 MABA Rel to RMP (MTB H37Rv ATCC 27294)	MIC90 (MTB H37Rv ATCC 27294)	DPX2 Viability @ 6.25 μM (DPX2 cells)	DPX2 Viability @ 25 μM (DPX2 cells)	IC50 (VERO cells (ATCC CRL-81))
CO[C@H]1/C=C/O[C@@]2(C)Oc3c(C)c(O)c4c(=O)c(c5oc6cc(N7CCOC(CN(C)C)C7)cc(OCc7ccc(CN8CCOCC8)cc7)c6nc-5c4c3C2=O)NC(=O)/C(C)=C\C=C\[C@H](C)[C@H](O)[C@@H](C)[C@@H](O)[C@@H](C)[C@H](OC(C)=O)[C@@H]1C (stereo partly drawn) [Compound 17o, (7S,9E,11S,12R,13S,14R,15R,16R,17S,18S,19E,21Z)-30-{2-[(dimethylamino)methyl]morpholin-4-yl}-2,15,17-trihydroxy-11-methoxy-3,7,12,14,16,18,22-heptamethyl-32-{[4-(morpholin-4-ylmethyl)phenyl]methoxy}-6,23,37-trioxo-8,27,38-trioxa-24,34-diazahexacyclo[23.11.1.1^4,7.0^5,36.0^26,35.0^28,33]octatriaconta-1,3,5(36)9,19,21,25,28,30,32,34-undecaen-13-yl acetate]	1.1	0.055 µM	96%	42%	> 10 µM
CO[C@H]1/C=C/O[C@@]2(C)Oc3c(C)c(O)c4c(=O)c(c5oc6cc(N7CCN(CC(C)C)CC7)cc(OCc7ccc(CN8CCN(C)CC8)cc7)c6nc-5c4c3C2=O)NC(=O)/C(C)=C\C=C\[C@H](C)[C@H](O)[C@@H](C)[C@@H](O)[C@@H](C)[C@H](OC(C)=O)[C@@H]1C [Compound 17p, (7S,9E,11S,12R,13S,14R,15R,16R,17S,18S,19E,21Z)-2,15,17-trihydroxy-11-methoxy-3,7,12,14,16,18,22-heptamethyl-32-({4-[(4-methylpiperazin-1-yl)methyl]phenyl}methoxy)-30-[4-(2-methylpropyl)piperazin-1-yl]-6,23,37-trioxo-8,27,38-trioxa-24,34-diazahexacyclo-[23.11.1.1^4,7.0^5,36.0^26,35.0^28,33]octatriaconta-1,3,5(36)9,19,21,25,28,30,32,34-undecaen-13-yl acetate]	–	0.0094 µM	116%	80%	> 10 µM
CO[C@H]1/C=C/O[C@@]2(C)Oc3c(C)c(O)c4c(=O)c(c5oc6cc(N7CCC(C(=O)O)CC7)cc(OCc7ccc(CN8CCN(C)CC8)cc7)c6nc-5c4c3C2=O)NC(=O)/C(C)=C\C=C\[C@H](C)[C@H](O)[C@@H](C)[C@@H](O)[C@@H](C)[C@H](OC(C)=O)[C@@H]1C [Compound 17q, 1-[(7S,9E,11S,12R,13S,14R,15R,16R,17S,18S,19E,21Z)-13-(acetyloxy)-2,15,17-trihydroxy-11-methoxy-3,7,12,14,16,18,22-heptamethyl-32-({4-[(4-methylpiperazin-1-yl)methyl]phenyl}methoxy)-6,23,37-trioxo-8,27,38-trioxa-24,34-diazahexacyclo-[23.11.1.1^4,7.0^5,36.0^26,35.0^28,33]-octatriaconta-1,3,5(36)9,19,21,25,28,30,32,34-undecaen-30-yl]piperidine-4-carboxylic acid]	16	0.415 µM (≈ 0.469 µg/mL)	100%	98%	> 10 µM
CO[C@H]1/C=C/O[C@@]2(C)Oc3c(C)c(O)c4c(=O)c(c5oc6cc(N7CCN(C(=O)c8ccc9occc9c8)CC7)cc(OCc7ccc(CN8CCOCC8)cc7)c6nc-5c4c3C2=O)NC(=O)/C(C)=C\C=C\[C@H](C)[C@H](O)[C@@H](C)[C@@H](O)[C@@H](C)[C@H](OC(C)=O)[C@@H]1C [Compound 17s, (7S,9E,11S,12R,13S,14R,15R,16R,17S,18S,19E,21Z)-30-{4-[(1-benzofuran-5-yl)carbonyl]piperazin-1-yl}-2,15,17-trihydroxy-11-methoxy-3,7,12,14,16,18,22-heptamethyl-32-{[4-(morpholin-4-ylmethyl)phenyl]methoxy}-6,23,37-trioxo-8,27,38-trioxa-24,34-diazahexacyclo[23.11.1.1^4,7.0^5,36.0^26,35.0^28,33]octatriaconta-1,3,5(36)9,19,21,25,28,30,32,34-undecaen-13-yl acetate]	0.36	0.018 µM	102%	86%	> 10 µM
CO[C@H]1/C=C/O[C@@]2(C)Oc3c(C)c(O)c4c(=O)c(c5oc6cc(N7CCCC(C(=O)Nc8ccc(Cl)cc8)C7)cc(C)c6nc-5c4c3C2=O)NC(=O)/C(C)=C\C=C\[C@H](C)[C@H](O)[C@@H](C)[C@@H](O)[C@@H](C)[C@H](OC(C)=O)[C@@H]1C (stereo partly drawn) [Compound 28, (7S,9E,11S,12R,13S,14R,15R,16R,17S,1S,19E,21Z)-30-{3-[(4-Chlorophenyl)carbamoyl]piperidin-1-yl}-2,15,17-trihydroxy-11-methoxy-3,7,12,14,16,18,22,32-octamethyl-6,23,37-trioxo-8,27,38-trioxa-24,34-diazahexacyclo[23.11.1.1^4,7.0^5,36.0^26,35.0^28,33]octatriaconta-1(36)2,4,9,19,21,25,28,30,32,34-undecaen-13-yl acetate]	0.16	0.0044 µM	110%	109%	> 10 µM
CO[C@H]1/C=C/O[C@@]2(C)Oc3c(C)c(O)c4c(=O)c(c5oc6cc(N7CCN(C(=O)c8cccc(-c9ccccn9)c8)CC7)cc(C)c6nc-5c4c3C2=O)NC(=O)/C(C)=C\C=C\[C@H](C)[C@H](O)[C@@H](C)[C@@H](O)[C@@H](C)[C@H](OC(C)=O)[C@@H]1C [Compound 29b, (7S,9E,11S,12R,13S,14R,15R,16R,17S,18S,19E,21Z)-2,15,17-Trihydroxy-11-methoxy-3,7,12,14,16,18,22,32-octamethyl-6,23,37-trioxo-30-(4-[3-(pyridin-2-yl)benzoyl]piperazin-1-yl)-8,27,38-trioxa-24,34-diazahexacyclo-[23.11.1.1^4,7.0^5,36.0^26,35.0^28,33]octatriaconta-1(36)2,4,9,19,21,25,28,30,32,34-undecaen-13-yl acetate]	0.32	0.0087 µM	136%	128%	> 10 µM
CO[C@H]1/C=C/O[C@@]2(C)Oc3c(C)c(O)c4c(=O)c(c5oc6cc(N7CCN(C(=O)c8ccc9occc9c8)CC7)cc(C)c6nc-5c4c3C2=O)NC(=O)/C(C)=C\C=C\[C@H](C)[C@H](O)[C@@H](C)[C@@H](O)[C@@H](C)[C@H](OC(C)=O)[C@@H]1C [Compound 29c, (7S,9E,11S,12R,13S,14R,15R,16R,17S,18S,19E,21Z)-30-[4-(1-Benzofuran-5-carbonyl)piperazin-1-yl]-2,15,17-trihydroxy-11-methoxy-3,7,12,14,16,18,22,32-octamethyl-6,23,37-trioxo-8,27,38-trioxa-24,34-diazahexacyclo[23.11.1.1^4,7.0^5,36.0^26,35.0^28,33]octatriaconta-(36)2,4,9,19,21,25,28,30,32,34-undecaen-13-yl acetate]	0.18	0.0049 µM	121%	114%	> 10 µM
CO[C@H]1/C=C/O[C@@]2(C)Oc3c(C)c(O)c4c(=O)c(c5oc6cc(N7CCC(C(=O)O)CC7)cc(C)c6nc-5c4c3C2=O)NC(=O)/C(C)=C\C=C\[C@H](C)[C@H](O)[C@@H](C)[C@@H](O)[C@@H](C)[C@H](OC(C)=O)[C@@H]1C [Compound 29f, 1-[(7S,9E,11S,12R,13S,14R,15R,16R,17S,18S,19E,21Z)-13-(acetyloxy)-2,15,17-trihydroxy-11-methoxy-3,7,12,14,16,18,22,32-octamethyl-6,23,37-trioxo-8,27,38-trioxa-24,34-diazahexacyclo-[23.11.1.1^4,7.0^5,36.0^26,35.0^28,33]octatriaconta-1,3,5(36)9,19,21,25,28,30,32,34-undecaen-30-yl]piperidine-4-carboxylic acid]	8.9	0.238 µM (≈ 0.22 µg/mL)	126%	131%	> 10 µM
CO[C@H]1/C=C/O[C@@]2(C)Oc3c(C)c(O)c4c(=O)c(c5oc6cc(N7CCC(CC(=O)O)CC7)cc(C)c6nc-5c4c3C2=O)NC(=O)/C(C)=C\C=C\[C@H](C)[C@H](O)[C@@H](C)[C@@H](O)[C@@H](C)[C@H](OC(C)=O)[C@@H]1C [Compound 29g, 2-{4-[(7S,9E,11S,12R,13S,14R,15R,16R,17S,18S,19E,21Z)-13-(acetyloxy)-2,15,17-trihydroxy-11-methoxy-3,7,12,14,16,18,22,32-octamethyl-6,23,37-trioxo-8,27,38-trioxa-24,34-diazahexacyclo[23.11.1.1^4,7.0^5,36.0^26,35.0^28,33]octatriaconta-1,3,5(36)9,19,21,25,28,30,32,34-undecaen-30-yl]piperidin-4-yl}acetic acid]	1.9	0.051 µM (≈ 0.0479 µg/mL)	100%	101%	> 10 µM
CO[C@H]1/C=C/O[C@@]2(C)Oc3c(C)c(O)c4c(=O)c(c5oc6cc(N7CCN(CC(=O)O)CC7)cc(C)c6nc-5c4c3C2=O)NC(=O)/C(C)=C\C=C\[C@H](C)[C@H](O)[C@@H](C)[C@@H](O)[C@@H](C)[C@H](OC(C)=O)[C@@H]1C [Compound 29h, 2-{4-[(7S,9E,11S,12R,13S,14R,15R,16R,17S,18S,19E,21Z)-13-(acetyloxy)-2,15,17-trihydroxy-11-methoxy-3,7,12,14,16,18,22,32-octamethyl-6,23,37-trioxo-8,27,38-trioxa-24,34-diazahexacyclo[23.11.1.1^4,7.0^5,36.0^26,35.0^28,33]octatriaconta-1,3,5(36)9,19,21,25,28,30,32,34-undecaen-30-yl]piperazin-1-yl}acetic acid]	0.69	0.018 µM (≈ 0.0169 µg/mL)	109%	98%	> 10 µM
